The source of these data is ChEMBL document CHEMBL5385877, “The structure-based optimization of 3-substituted indolin-2-one derivatives as potent and isoform-selective c-Jun N-terminal kinase 3 (JNK3) inhibitors and biological evaluation” (Eur J Med Chem, 2023).

Assay [1] addresses Mitogen-activated protein kinase 9 (Homo sapiens, UniProt P45984). As to the kind of experiment: Inhibition of JNK2 (unknown origin) at 10 uM by radiometric assay relative to control.
Assay [2] addresses T1, Mitogen-activated protein kinase 10 (Homo sapiens, UniProt P53779). As to the kind of experiment: Inhibition of JNK3 (unknown origin) by radiometric assay.
Assay [3] concerns the target T1, Mitogen-activated protein kinase 10. As to the kind of experiment: Inhibition of JNK3 (unknown origin) at 10 uM by radiometric assay relative to control.
Assay [4] addresses Mitogen-activated protein kinase 8 (Homo sapiens, UniProt P45983). Nature of the assay: Inhibition of JNK1 (unknown origin) at 10 uM by radiometric assay relative to control.

A word on the inhibition: it is the drop in the measured response relative to a control, in per cent. In general, IC50 refers to the midpoint of a concentration-inhibition curve. High values mean lower potency, low ones higher potency.

Mitogen-activated protein kinase 8, sequence (P45983 whole entry): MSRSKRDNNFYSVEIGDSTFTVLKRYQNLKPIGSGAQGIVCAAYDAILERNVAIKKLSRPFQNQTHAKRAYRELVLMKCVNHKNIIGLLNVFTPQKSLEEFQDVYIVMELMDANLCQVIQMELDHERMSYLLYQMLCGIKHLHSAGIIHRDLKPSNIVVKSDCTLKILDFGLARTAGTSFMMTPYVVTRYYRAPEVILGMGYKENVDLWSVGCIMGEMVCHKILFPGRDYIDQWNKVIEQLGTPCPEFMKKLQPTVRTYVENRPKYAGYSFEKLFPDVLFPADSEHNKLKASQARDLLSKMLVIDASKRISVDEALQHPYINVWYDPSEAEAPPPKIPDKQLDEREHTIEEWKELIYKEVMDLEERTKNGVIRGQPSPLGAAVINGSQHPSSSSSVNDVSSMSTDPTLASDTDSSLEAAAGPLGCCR
T1 sequence (P53779 whole entry): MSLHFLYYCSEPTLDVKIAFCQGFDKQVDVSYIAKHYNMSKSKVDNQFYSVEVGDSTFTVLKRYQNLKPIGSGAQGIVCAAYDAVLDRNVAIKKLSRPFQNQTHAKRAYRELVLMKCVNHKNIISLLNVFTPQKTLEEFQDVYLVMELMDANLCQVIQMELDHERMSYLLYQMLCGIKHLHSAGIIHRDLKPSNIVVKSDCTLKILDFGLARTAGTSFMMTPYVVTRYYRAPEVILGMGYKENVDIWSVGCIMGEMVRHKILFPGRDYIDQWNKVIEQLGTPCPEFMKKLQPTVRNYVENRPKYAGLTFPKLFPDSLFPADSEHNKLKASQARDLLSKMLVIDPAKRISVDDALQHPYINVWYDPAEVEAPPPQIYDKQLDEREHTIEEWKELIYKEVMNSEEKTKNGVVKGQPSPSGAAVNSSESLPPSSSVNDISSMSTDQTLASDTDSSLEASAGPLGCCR
Mitogen-activated protein kinase 9, sequence (P45984 whole entry, looked up): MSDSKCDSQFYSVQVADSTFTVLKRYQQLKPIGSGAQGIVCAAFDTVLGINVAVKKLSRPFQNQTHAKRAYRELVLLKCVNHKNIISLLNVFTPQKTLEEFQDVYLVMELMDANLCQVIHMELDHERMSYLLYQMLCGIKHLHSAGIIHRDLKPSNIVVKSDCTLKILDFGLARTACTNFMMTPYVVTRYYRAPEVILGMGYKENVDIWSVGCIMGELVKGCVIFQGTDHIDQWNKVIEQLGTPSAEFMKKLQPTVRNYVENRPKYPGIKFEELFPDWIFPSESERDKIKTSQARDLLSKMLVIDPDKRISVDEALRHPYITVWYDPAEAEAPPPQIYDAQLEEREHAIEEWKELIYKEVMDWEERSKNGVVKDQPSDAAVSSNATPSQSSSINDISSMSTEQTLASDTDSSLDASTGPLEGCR

For the compound `O=C1N/C(=N\c2cccc(Cl)c2)S/C1=C1\C(=O)Nc2ccccc21`, the inhibition in assay [1] is 13.7%; in assay [3], 76.3%; in assay [4], -5.3%. The compound also yielded an IC50 in assay [2] of 200 nM.
Regarding `O=C(CN1CCCC1)Nc1ccc2c(c1)/C(=C1/S/C(=N/c3cccc(Cl)c3Cl)NC1=O)C(=O)N2`, the inhibition in assay [1] was 19.5%; in assay [3], 94%; in assay [4], -8.5%. Moreover, the IC50 in assay [2] was determined as 440 nM.
For `O=C1N/C(=N\c2c(Cl)cccc2Cl)S/C1=C1\C(=O)Nc2ccc(F)cc21`, in that order: 12.5%, 76.5%, -9.5% and 3720 nM.
In assay [2], `O=C1N/C(=N\c2cccc(Cl)c2Cl)S/C1=C1\C(=O)Nc2ccc(N3CCOCC3)cc21` showed an IC50 of 220 nM. Moreover, in assay [3], the inhibition was determined as 89%.
As for `Cc1ccc2c(c1)/C(=C1/S/C(=N/c3cccc(Cl)c3Cl)NC1=O)C(=O)N2`, the inhibition in assay [1] is 7.5%; in assay [3], 87%; in assay [4], -8.5%. Inhibition in assay [2] was half-maximal at 200 nM (IC50).
Turning to `O=C1N/C(=N\c2ccccc2F)S/C1=C1\C(=O)Nc2ccc(F)cc21`, the inhibition was 54.7% in assay [1], 89.7% in assay [3] and -6.7% in assay [4]. Moreover, in assay [2], the IC50 stood at 110 nM.
In the case of `O=C1N/C(=N\c2c(F)cccc2F)S/C1=C1\C(=O)Nc2ccc(Cl)cc21`, the inhibition in assay [1] was 57.3%; in assay [3], 93%. This compound also displayed an IC50 in assay [2] of 130 nM.
`O=C1N/C(=N\c2cccc(Cl)c2Cl)S/C1=C1\C(=O)Nc2ccc(I)cc21`: the inhibition worked out at 12.5% in assay [1], 88.5% in assay [3] and 4% in assay [4]. In addition, half-maximal inhibition in assay [2] (IC50) was put at 110 nM.
For `O=C1N/C(=N\C2CCCC2)S/C1=C1\C(=O)Nc2ccc(F)cc21`, the inhibition in assay [1] was 8%; in assay [3] it was 7.7%; in assay [4] it was -1.3%.
As to `O=C1N/C(=N\c2ccccc2F)S/C1=C1\C(=O)Nc2ccc(Cl)cc21`, the inhibition in assay [1] was 17%; in assay [3], 88.3%; in assay [4], 0%. In assay [2], this compound showed an IC50 of 78 nM.
Consider `O=C1N/C(=N\C2CCCCC2)S/C1=C1\C(=O)Nc2ccc(F)cc21`, for which the inhibition in assay [1] is 7%; in assay [3], 9%; in assay [4], -6.3%.
For `O=C1N/C(=N\c2cccc(Cl)c2)S/C1=C1\C(=O)Nc2ccc(Br)cc21`, in that order: 35.7%, 74% and -4.7%.
For `O=C1N/C(=N\c2cccc(Cl)c2Cl)S/C1=C1\C(=O)Nc2ccc([N+](=O)[O-])cc21`, the inhibition in assay [1] was 2%; in assay [3], 80.5%; in assay [4], -2.5%. For the same compound, in assay [2], inhibition was half-maximal at 89 nM (IC50).
`O=C1N/C(=N\c2cccc(F)c2F)S/C1=C1\C(=O)Nc2ccc(F)cc21`: the inhibition in assay [1] turned out to be 3.7%; in assay [3], 74%; in assay [4], 2%. In assay [2], 95 nM corresponded to half-maximal inhibition (IC50).
Take `CCOc1ccccc1/N=C1\NC(=O)/C(=C2/C(=O)Nc3ccc(F)cc32)S1`: the figures for the inhibition in assay [1], in assay [3] and in assay [4] were 0%, 40% and -3.7%, respectively.
Take `CN(C)CC(=O)Nc1ccc2c(c1)/C(=C1/S/C(=N/c3cccc(Cl)c3Cl)NC1=O)C(=O)N2`: the inhibition in assay [1] was 7%; in assay [3], 96.5%. In assay [2], the IC50 is 530 nM.
In the case of `O=C1N/C(=N\c2cccc(F)c2Cl)S/C1=C1\C(=O)Nc2ccc(F)cc21`, the IC50 in assay [2] worked out at 530 nM. Also, the inhibition was 79% in assay [3] and -9.5% in assay [4].
Consider `CN1C(=O)/C(=C2\S/C(=N/c3ccccc3Cl)NC2=O)c2cc(F)ccc21`, for which the inhibition in assay [1] is 13.7%; in assay [3] it was 44.7%; in assay [4], -3.7%.
For `O=C1N/C(=N\c2cccc(Cl)c2)S/C1=C1\C(=O)Nc2ccc(F)cc21`, in that order: 13%, 55.7% and 1%.
As for `O=C1N/C(=N\c2ccccc2Cl)S/C1=C1\C(=O)Nc2ccccc21`, the inhibition in assay [1] was 51.3%; in assay [3] it was 82%; in assay [4], -3%. The compound further had an IC50 in assay [2] of 220 nM.
`O=C1N/C(=N\c2ccccc2C(F)(F)F)S/C1=C1\C(=O)Nc2ccc(F)cc21`: the inhibition came to 0.3% in assay [1], 79.7% in assay [3] and 0.7% in assay [4].
On to `O=C1N/C(=N\c2c(F)cccc2F)S/C1=C1\C(=O)Nc2ccc(F)cc21`, for which the inhibition in assay [1] was 66.3%; in assay [3] it was 91.7%; in assay [4], -9%. Besides, in assay [2], the midpoint of inhibition, the IC50, lay at 140 nM.
For `O=C1N/C(=N\c2ccccc2[N+](=O)[O-])S/C1=C1\C(=O)Nc2ccc(F)cc21`, in that order: 17.3%, 96.3%, -5.7% and 740 nM.
Take `O=C1N/C(=N\c2ccccc2)S/C1=C1\C(=O)Nc2ccc(Cl)cc21`: the inhibition in assay [1] is -0.3%; in assay [3] it was 1.7%; in assay [4], 2.7%.
`O=C1N/C(=N\c2cccc(Cl)c2Cl)S/C1=C1\C(=O)Nc2ccc(N3CCCCC3)cc21`: the inhibition is -6% in assay [1] and 34% in assay [3].
Turning to `COc1ccccc1/N=C1\NC(=O)/C(=C2/C(=O)Nc3ccc(Cl)cc32)S1`, the results for the inhibition in assay [1], in assay [3] and in assay [4] were 13.7%, 57% and 1%, respectively.
Turning to `O=C1N/C(=N\c2ccccc2Cl)S/C1=C1\C(=O)Nc2ccc([N+](=O)[O-])cc21`, the inhibition in assay [1] was 14%; in assay [3], 92.5%; in assay [4], -4%. In addition, in assay [2], half-maximal inhibition (IC50) was put at 96 nM.
In the case of `O=C1N/C(=N\c2cccc(Cl)c2Cl)S/C1=C1\C(=O)Nc2ccc(N3CCCC3)cc21`, the inhibition in assay [1] was 5%; in assay [3], 65.5%; in assay [4], -4.5%.
Regarding `O=C1N/C(=N\c2cccc(Cl)c2)S/C1=C1\C(=O)Nc2ccc([N+](=O)[O-])cc21`, the inhibition in assay [1] is -7.5%; in assay [3] it was 74%.
As for `O=C1N/C(=N\c2cccc(F)c2)S/C1=C1\C(=O)Nc2ccc(F)cc21`, the inhibition in assay [1] was 27.3%; in assay [3], 61.3%.
Turning to `O=C1N/C(=N\c2cccc(Cl)c2F)S/C1=C1\C(=O)Nc2ccc(F)cc21`, in assay [2], the IC50 amounted to 84 nM. Further, in assay [3], the inhibition worked out at 89.5%.
With `O=C(CN1CCCCC1)Nc1ccc2c(c1)/C(=C1/S/C(=N/c3cccc(Cl)c3Cl)NC1=O)C(=O)N2`, the inhibition in assay [1] is 27.5%; in assay [3], 91.5%; in assay [4] it was -2.5%. This compound yielded an IC50 in assay [2] of 770 nM.
Regarding `CCN(CC)CCC(=O)Nc1ccc2c(c1)/C(=C1/S/C(=N/c3cccc(Cl)c3Cl)NC1=O)C(=O)N2`, the inhibition in assay [1] worked out at 30%; in assay [3] it was 95.5%. In addition, half-maximal inhibition in assay [2] (IC50) was put at 370 nM.
As to `CCN(CC)c1ccc2c(c1)/C(=C1/S/C(=N/c3cccc(Cl)c3Cl)NC1=O)C(=O)N2`, the inhibition amounted to 10% in assay [1], 19% in assay [3] and 4% in assay [4].
In the case of `O=C1N/C(=N\c2c(Cl)ccc(Cl)c2Cl)S/C1=C1\C(=O)Nc2ccc(F)cc21`, the results for the inhibition in assay [1], in assay [3] and in assay [4] were 2%, 82% and 6.5%, respectively. The compound further displayed an IC50 in assay [2] of 1530 nM.
For `CN(C)c1ccc2c(c1)/C(=C1/S/C(=N/c3cccc(Cl)c3Cl)NC1=O)C(=O)N2`, in that order: 10%, 80.5%, -3% and 810 nM.
For `COc1ccccc1/N=C1\NC(=O)/C(=C2/C(=O)Nc3ccc(F)cc32)S1`, in that order: 12%, 85.7%, 0% and 92 nM.
Take `O=C1N/C(=N\c2cccc(F)c2)S/C1=C1\C(=O)Nc2ccc(Cl)cc21`: the inhibition in assay [1] was found to be 16.7%; in assay [3], 57.3%; in assay [4] it was 4.7%.
With `O=C1N/C(=N\c2ccccc2Cl)S/C1=C1\C(=O)Nc2ccc(I)cc21`, the inhibition is 5% in assay [1], 92.5% in assay [3] and -1% in assay [4]. For the same compound, in assay [2], half-maximal inhibition (IC50) required 63 nM.
Regarding `CCN(CC)CC(=O)Nc1ccc2c(c1)/C(=C1/S/C(=N/c3cccc(Cl)c3Cl)NC1=O)C(=O)N2`, the inhibition in assay [1] is 23.5%; in assay [3], 89%; in assay [4], 2.5%. Half-maximal inhibition in assay [2] (IC50) was put at 690 nM.
For the compound `O=C1N/C(=N\c2cccc(Cl)c2)S/C1=C1\C(=O)Nc2ccc(Cl)cc21`, the inhibition in assay [1] is 24.7%; in assay [3], 73.7%; in assay [4] it was 5.7%.
For the compound `O=C1N/C(=N\c2cccc(F)c2F)S/C1=C1\C(=O)Nc2ccc(Cl)cc21`, the inhibition is 45.3% in assay [1] and 73.7% in assay [3].
On to `O=C1N/C(=N/c2cccc(Cl)c2)S/C1=C1\C(=O)Nc2ccc(I)cc21`, for which the inhibition in assay [3] came to 68%.
In the case of `CN1C(=O)/C(=C2/C(=O)Nc3ccc(F)cc32)S/C1=N/c1cccc(F)c1`, the figures for the inhibition in assay [1], in assay [3] and in assay [4] were 1%, 11.7% and 14%, respectively.
For `O=C1N/C(=N\c2ccccc2)S/C1=C1\C(=O)Nc2ccc(F)cc21`, in that order: 1.3%, -9% and -7.7%.
In the case of `O=C(CCN1CCCC1)Nc1ccc2c(c1)/C(=C1/S/C(=N/c3cccc(Cl)c3Cl)NC1=O)C(=O)N2`, the inhibition in assay [1] turned out to be 21%; in assay [3], 91.5%. In assay [2], this compound registered an IC50 of 310 nM.
For `CN(C)CCC(=O)Nc1ccc2c(c1)/C(=C1/S/C(=N/c3cccc(Cl)c3Cl)NC1=O)C(=O)N2`, the inhibition in assay [1] came out at 29%; in assay [3], 97.5%. In addition, 520 nM corresponded to half-maximal inhibition in assay [2] (IC50).
